Reference: article PMC12591484 (PLOS One, 2025)

Legend:
Assay in all cases: Drug protection from pCMBS modification (SCAMP)
Type in all cases: cell-based
Set-up in all cases: key: +: Mutant-function studies are deemed positive when bulky mutations (mostly tryptophans) at the site significantly reduce positive modulation by anesthetics; -: Negative results are indicated by “–“ symbols
[1] = target: T1, α1β3M286Cγ2L GABAA receptors (Homo sapiens, UniProt P14867+P18507+P28472, M311C); conditions: results of this study (*); etomidate cell also cites [16]
T1 construct: expressed in transfected cells; host or cells: Xenopus oocytes injected with capped mRNA, 1α:1β:5γ
Protocol: (§1) Experiments were performed in ND-96 buffer at room temperature (20–22°C). Oocytes were placed in a low-volume (30µl) flow chamber and impaled with borosilicate microelectrodes filled with 3M KCl (resistance 0.5–3 MΩ) and voltage-clamped at −50 mV (model OC-725C; Warner Instruments, Hamden, CT, USA). Superfusate solutions in ND-96 were delivered at 2 ml/min from glass syringe reservoirs via computer-controlled valves (VC-8; Warner Instruments), a micro-manifold (ALA-VM8; ALA Scientific Instruments, Farmingdale, NY, USA), and PTFE tubing. Currents were digitized at 200 Hz on a computer running ClampEx v8.0 software (Molecular Devices, San Jose, CA, USA). Digitized traces were filtered with a 10-Hz low-pass Bessel function, leak corrected and analyzed for peak amplitude off-line using Clampfit v8 software (Molecular Devices).
(§2) Drug protection from pCMBS modification was assessed under pCMBS exposure conditions that produced approximately half of the maximal modification ratio for each mutant receptor, and a least a value of 3. This approach balanced the magnitude of functional modification signals (smaller with less pCMBS exposure) against the challenge of using a reversibly bound ligand to competitively block an irreversible covalent cysteine-modifying reaction. […] Each oocyte was used in a single SCAMP experiment. […] Etomidate was used as a positive control for anesthetic protection in α1M236C and β3M286C mutants and as a negative control in α1S270C, α1A291C, β3L231C, γ2S301C, γ2I242C, and γ2L246C mutants. R-mTFD-MPAB was used as a positive control in α1S270C, α1A291C, β3L231C, and γ2LS301C mutants and as a negative control in α1M236C and β3M286C mutants. For each cysteine mutant and protective drug combination, five oocytes were studied.
(§3) Non-linear least squares fits and statistical analyses were performed in Prism 10.4.0. (GraphPad Software, San Diego, CA, USA). […] Protection (steric inhibition of pCMBS modification) was inferred when anesthetics produced significant reductions in modification ratios relative to control (no anesthetic) values. The statistical significance threshold was p < 0.05.

[2] = target: T2, α1S270Cβ3γ2L GABAA receptors (Homo sapiens, UniProt P14867+P18507+P28472, S297C); conditions: results of this study (*)
T2 construct: expressed in transfected cells; host or cells: Xenopus oocytes injected with capped mRNA, 1α:1β:5γ
Protocol: as §1, §2, §3

[3] = target: T3, α1β3γ2S301C GABAA receptors (Homo sapiens, UniProt P14867+P18507+P28472, S340C); conditions: results of this study (*)
T3 construct: expressed in transfected cells; host or cells: Xenopus oocytes injected with capped mRNAs mixed 1α:1β:5γ
T3 sequence (P14867 28-456): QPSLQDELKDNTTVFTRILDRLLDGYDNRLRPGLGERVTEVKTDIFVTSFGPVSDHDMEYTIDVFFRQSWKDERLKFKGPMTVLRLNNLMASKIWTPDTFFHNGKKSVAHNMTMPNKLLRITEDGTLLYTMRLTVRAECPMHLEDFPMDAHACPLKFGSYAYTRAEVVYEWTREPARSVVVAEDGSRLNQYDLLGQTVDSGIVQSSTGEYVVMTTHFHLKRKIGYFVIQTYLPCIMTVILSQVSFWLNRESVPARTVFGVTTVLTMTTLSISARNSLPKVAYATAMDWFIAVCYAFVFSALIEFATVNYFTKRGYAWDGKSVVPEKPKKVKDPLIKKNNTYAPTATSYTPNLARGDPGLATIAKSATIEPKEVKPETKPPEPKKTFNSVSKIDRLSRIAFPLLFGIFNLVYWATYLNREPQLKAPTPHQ
T3 sequence (P28472 26-473): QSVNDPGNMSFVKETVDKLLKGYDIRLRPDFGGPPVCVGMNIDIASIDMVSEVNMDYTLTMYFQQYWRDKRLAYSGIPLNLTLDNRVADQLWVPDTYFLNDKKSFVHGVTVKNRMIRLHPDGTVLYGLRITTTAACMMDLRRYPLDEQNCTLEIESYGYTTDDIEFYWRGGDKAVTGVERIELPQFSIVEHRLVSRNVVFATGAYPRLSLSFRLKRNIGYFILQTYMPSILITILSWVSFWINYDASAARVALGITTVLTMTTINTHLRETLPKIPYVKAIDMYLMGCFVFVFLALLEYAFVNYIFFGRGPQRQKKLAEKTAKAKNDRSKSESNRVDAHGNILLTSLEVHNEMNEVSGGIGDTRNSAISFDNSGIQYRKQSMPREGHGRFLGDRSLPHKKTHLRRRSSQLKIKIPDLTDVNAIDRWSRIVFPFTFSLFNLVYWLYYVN
T3 sequence (P18507 40-475 S340C): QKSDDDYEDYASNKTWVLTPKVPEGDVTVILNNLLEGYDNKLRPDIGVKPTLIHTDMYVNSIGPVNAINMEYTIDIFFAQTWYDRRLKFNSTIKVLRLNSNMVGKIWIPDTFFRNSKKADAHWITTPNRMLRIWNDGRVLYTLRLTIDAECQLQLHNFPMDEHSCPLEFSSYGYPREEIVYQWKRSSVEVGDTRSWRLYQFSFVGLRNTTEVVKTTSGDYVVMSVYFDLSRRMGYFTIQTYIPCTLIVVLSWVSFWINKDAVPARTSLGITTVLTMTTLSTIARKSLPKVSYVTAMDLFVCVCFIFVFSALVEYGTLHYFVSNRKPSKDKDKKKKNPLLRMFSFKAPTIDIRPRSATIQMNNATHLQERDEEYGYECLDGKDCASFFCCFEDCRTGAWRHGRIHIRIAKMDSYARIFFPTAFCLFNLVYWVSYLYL
Protocol: as §1, §2, §3

T1 sequence (P28472 26-473 M311C, one chain of several): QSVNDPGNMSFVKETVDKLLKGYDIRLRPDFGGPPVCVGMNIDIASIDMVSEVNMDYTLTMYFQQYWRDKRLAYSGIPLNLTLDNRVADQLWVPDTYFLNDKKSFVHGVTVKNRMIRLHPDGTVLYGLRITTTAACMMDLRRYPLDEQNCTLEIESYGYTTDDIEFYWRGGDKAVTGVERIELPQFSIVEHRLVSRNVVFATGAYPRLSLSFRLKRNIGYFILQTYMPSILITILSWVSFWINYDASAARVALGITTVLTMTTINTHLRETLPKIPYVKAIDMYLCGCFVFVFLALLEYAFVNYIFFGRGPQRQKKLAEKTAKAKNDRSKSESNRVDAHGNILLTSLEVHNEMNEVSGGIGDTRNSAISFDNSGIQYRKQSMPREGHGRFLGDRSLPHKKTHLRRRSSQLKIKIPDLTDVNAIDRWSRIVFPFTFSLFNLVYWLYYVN
T1 sequence (P18507 40-475, one chain of several): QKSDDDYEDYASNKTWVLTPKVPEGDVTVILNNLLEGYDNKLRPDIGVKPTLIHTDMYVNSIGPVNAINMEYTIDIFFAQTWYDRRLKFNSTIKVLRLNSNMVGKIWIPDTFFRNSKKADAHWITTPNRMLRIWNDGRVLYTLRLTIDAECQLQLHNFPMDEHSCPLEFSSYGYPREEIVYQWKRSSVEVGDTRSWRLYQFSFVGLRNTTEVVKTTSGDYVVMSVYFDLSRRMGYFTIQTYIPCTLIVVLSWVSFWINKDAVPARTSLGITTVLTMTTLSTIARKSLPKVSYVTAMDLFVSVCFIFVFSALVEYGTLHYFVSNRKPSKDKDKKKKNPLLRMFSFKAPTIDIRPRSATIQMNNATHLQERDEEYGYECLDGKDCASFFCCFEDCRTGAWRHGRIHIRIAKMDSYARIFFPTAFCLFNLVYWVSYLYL
T2 sequence (P14867 28-456 S297C, one chain of several): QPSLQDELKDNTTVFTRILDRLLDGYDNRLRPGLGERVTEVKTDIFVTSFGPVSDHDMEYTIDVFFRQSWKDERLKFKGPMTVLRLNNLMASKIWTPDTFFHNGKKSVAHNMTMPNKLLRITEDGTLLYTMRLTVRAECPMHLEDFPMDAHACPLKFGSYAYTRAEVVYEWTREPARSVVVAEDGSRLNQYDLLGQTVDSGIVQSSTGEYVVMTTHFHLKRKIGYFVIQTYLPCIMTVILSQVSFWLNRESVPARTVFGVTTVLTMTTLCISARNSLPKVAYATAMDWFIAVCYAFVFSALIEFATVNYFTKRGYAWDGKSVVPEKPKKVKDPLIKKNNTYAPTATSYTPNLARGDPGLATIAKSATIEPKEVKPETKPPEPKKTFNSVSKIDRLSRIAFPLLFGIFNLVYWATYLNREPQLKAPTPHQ
T2 sequence (P18507 40-475, one chain of several): as the sequence (P18507 40-475, one chain of several) above

Compound	SCAMP result, β3+ (M2, M3) M286 [1]	SCAMP result, α1+ (M2, M3) S270 [2]	SCAMP result, γ2+ (M2, M3) S301 [3]
C=CCC1(c2cccc(C3(C(F)(F)F)N=N3)c2)C(=O)NC(=O)N(C)C1=O (stereo not drawn) [R-mTFD-MPAB, R-5-allyl-1-methyl-5-(m-trifluoromethyl-diazirynylphenyl) barbituric acid]	-*	–	–
CCOC(=O)c1cncn1[C@H](C)c1ccccc1 [etomidate, R-etomidate]	–	-*	-*
CC(C)c1cc(C2(C(F)(F)F)N=N2)cc(C(C)C)c1CO [pTFD-di-iPr-BnOH]	-*	-*	-*
